Blank lines part the entries; values can stand above or below the compound they belong to.
Experiments:
[1] = molecular target: C-C chemokine receptor type 2 (Homo sapiens, UniProt P41597); experiment: Binding affinity to CCR2 (unknown origin) assessed as inhibition constant
[2] = molecular target: T1, C-X-C chemokine receptor type 3 (Homo sapiens, UniProt P49682); experiment: Inhibition of human wild type CXCR3
T1 sequence (P49682 whole entry): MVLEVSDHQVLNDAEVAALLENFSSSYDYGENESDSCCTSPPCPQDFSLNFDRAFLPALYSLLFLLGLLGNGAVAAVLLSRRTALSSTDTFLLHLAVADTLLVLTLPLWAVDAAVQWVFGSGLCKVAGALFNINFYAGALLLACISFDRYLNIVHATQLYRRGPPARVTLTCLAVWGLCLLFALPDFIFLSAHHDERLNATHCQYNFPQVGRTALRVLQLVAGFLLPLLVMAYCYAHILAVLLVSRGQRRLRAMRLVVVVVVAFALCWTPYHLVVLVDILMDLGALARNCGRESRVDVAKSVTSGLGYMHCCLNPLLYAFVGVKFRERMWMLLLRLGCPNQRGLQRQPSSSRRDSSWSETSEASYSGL

[3] = molecular target: T1, C-X-C chemokine receptor type 3; experiment: Inhibition of human recombinant CXCR3
[4] = molecular target: T2, C-X-C chemokine receptor type 2 (Homo sapiens, UniProt P25025); experiment: Binding affinity to wild type human CXCR2 assessed as dissociation constant
T2 sequence (P25025 whole entry): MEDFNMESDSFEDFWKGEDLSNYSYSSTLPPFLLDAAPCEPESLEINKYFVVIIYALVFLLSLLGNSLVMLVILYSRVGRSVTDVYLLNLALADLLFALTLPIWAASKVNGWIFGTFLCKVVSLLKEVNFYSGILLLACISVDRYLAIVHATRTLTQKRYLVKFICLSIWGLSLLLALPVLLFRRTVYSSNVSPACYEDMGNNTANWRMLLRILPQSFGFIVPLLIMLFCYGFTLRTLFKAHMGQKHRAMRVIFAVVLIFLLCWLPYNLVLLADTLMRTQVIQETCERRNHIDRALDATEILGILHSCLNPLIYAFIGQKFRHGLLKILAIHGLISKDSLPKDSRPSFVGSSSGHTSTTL

[5] = molecular target: C-X-C chemokine receptor type 4 (Homo sapiens, UniProt P61073); experiment: Binding affinity to CXCR4 (unknown origin) assessed as inhibition constant
[6] = Binding affinity to CXCR4-Y251A mutant (unknown origin) assessed as […]; set-up: species or system Homo sapiens
[7] = Inhibition of CXCR4-Y251A mutant (unknown origin); set-up: species or system Homo sapiens
[8] = molecular target: T3, C-C chemokine receptor type 5 (Homo sapiens, UniProt P51681); experiment: Inhibition of wild type CCR5 (unknown origin)
[9] = molecular target: C-C chemokine receptor type 8 (Homo sapiens, UniProt P51685); experiment: Inhibition of CCR8 mutant (unknown origin)
[10] = molecular target: T3, C-C chemokine receptor type 5; experiment: Inhibition of human CCR5

Chain of C-X-C chemokine receptor type 4 (P61073 whole entry): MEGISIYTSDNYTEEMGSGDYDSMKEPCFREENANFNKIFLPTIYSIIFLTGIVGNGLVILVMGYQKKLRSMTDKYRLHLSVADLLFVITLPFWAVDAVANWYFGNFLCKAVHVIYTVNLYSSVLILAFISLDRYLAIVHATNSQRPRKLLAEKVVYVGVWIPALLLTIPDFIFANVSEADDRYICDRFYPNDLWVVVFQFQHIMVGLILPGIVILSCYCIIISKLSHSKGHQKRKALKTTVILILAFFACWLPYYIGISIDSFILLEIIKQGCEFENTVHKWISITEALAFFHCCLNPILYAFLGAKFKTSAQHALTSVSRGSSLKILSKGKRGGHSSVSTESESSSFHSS
Chain of C-C chemokine receptor type 2 (P41597 whole entry): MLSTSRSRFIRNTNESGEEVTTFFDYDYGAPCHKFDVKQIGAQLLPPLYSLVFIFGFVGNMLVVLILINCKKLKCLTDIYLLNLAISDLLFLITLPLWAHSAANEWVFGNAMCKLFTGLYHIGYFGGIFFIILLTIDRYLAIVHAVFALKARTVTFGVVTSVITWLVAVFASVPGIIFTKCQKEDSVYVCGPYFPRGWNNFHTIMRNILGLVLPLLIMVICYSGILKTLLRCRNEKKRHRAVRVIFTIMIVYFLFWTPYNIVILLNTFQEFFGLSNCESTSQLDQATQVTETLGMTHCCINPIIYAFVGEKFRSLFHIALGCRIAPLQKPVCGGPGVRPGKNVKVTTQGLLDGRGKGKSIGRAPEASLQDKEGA
Chain of C-C chemokine receptor type 8 (P51685 whole entry, looked up, change not shown): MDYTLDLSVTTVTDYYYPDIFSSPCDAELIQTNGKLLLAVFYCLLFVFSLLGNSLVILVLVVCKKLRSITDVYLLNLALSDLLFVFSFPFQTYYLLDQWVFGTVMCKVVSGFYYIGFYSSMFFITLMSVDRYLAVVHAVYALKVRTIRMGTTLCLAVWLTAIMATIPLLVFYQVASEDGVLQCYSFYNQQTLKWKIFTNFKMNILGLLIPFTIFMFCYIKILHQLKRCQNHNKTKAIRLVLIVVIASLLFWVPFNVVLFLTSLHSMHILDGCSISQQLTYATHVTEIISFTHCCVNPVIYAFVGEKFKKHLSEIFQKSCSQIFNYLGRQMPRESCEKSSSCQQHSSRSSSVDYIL
T3 sequence (P51681 whole entry): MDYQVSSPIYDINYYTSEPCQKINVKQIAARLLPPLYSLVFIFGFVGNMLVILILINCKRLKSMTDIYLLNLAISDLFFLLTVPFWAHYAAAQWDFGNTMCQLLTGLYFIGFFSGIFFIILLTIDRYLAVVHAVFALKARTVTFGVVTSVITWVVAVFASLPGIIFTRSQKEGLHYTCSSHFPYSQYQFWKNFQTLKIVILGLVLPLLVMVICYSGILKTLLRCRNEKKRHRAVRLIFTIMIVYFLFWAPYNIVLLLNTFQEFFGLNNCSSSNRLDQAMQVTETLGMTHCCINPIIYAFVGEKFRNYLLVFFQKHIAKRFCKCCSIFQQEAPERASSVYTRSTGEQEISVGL

Ki [1]: 0.316 µM
Compound: Cc1ccc(CN2CC[C@@H](NC(=O)CNC(=O)c3cccc(C(F)(F)F)c3)C2)c(C)c1

IC50 [2]: 1 µM
Compound: NCCCC[C@H](NC(=O)[C@@H]1Cc2ccccc2CN1C(=O)CCC(=O)c1ccccc1)C(=O)NCC(c1ccccc1)c1ccccc1

IC50 [2]: 0.0631 µM
IC50 [3]: 0.0631 µM
Compound: CCOc1ccc(-n2c([C@@H](C)N(Cc3cccnc3)C(=O)Cc3ccc(F)c(C(F)(F)F)c3)nc3ncccc3c2=O)cc1

Kd [4]: 1 µM
Compound: C[C@H](CO)Nc1nc(SCc2cccc(F)c2F)nc2[nH]c(=O)cnc12

Ki [5]: 2.3 µM
Compound: C(CCCN1CCCNCCNCCCNCC1)CCN1CCCNCCNCCCNCC1

Compound: O=CNC(=C(Cl)Cl)[P+](c1ccccc1)(c1ccccc1)c1ccccc1.[O-][Cl+3]([O-])([O-])[O-]
IC50 [6]: 27 µM

pIC50 [2]: 4.5
Ki [1]: 0.0631 µM
IC50 [7]: 0.019 µM
Compound: Cc1ccc(-c2ccc3c(c2)C=C(C(=O)Nc2ccc(C[N+](C)(C)C4CCOCC4)cc2)CCC3)cc1.[Cl-]

IC50 [7]: 0.02 µM
Compound: CC(=O)N1CCC(C(=O)N(CCCN2CCC(Cc3ccc(C(N)=O)cc3)CC2)c2ccc(C)c(Cl)c2)CC1

IC50 [8]: 0.0025 µM
Compound: CCCC[C@H]1C[C@@H](N(C)C(C)C)CC[C@H]1NC(=O)CNC(=O)c1cccc(C(F)(F)F)c1

Ki [5]: 8 µM
Compound: C[C@H](NC(=O)[C@H](CCCNC(=N)N)NC(=O)c1ccc(CNCc2ccccn2)cc1)c1cccc2ccccc12

Ki [5]: 0.18 µM
Compound: C1CNCCNCCCN(CCCN2CCCNCCNCCCNCC2)CCNC1

IC50 [7]: 0.0002 µM
Compound: Cc1nnc(C(C)C)n1[C@H]1C[C@H]2CC[C@@H](C1)N2CC[C@H](NC(=O)C1CCC(F)(F)CC1)c1ccccc1 [MARAVIROC]

IC50 [7]: 0.0167 µM
Compound: CCCCN1C(=O)[C@H](CC2CCCCC2)NC(=O)C12CCN(Cc1ccc(Oc3ccc(C(=O)O)cc3)cc1)CC2

IC50 [2]: 0.0158 µM
IC50 [3]: 0.0158 µM
Compound: CCNC(=O)c1cnc(N2CCN(C3CCN(Cc4ccc(Cl)cc4)CC3)[C@@H](CC)C2)c(Cl)c1

Ki [5]: 0.85 µM
Compound: c1cc(CN2CCCNCCNCCCNCC2)cc(CN2CCCNCCNCCCNCC2)n1

IC50 [6]: 0.016 µM
Compound: CCO/N=C(\c1ccc(Br)cc1)C1CCN(C2(C)CCN(C(=O)c3c(C)cc[n+]([O-])c3C)CC2)CC1 [ANCRIVIROC]

Kd [4]: 10000 µM
Compound: CC[C@@H](NC1C(=O)C(=O)C1Nc1cccc(C(=O)N(C)C)c1O)c1ccc(C)o1 (some centres not stated)

pIC50 [9]: 7.3
Compound: COc1ccccc1Oc1cccc(CN2CCC(NC(=O)C3CC(=O)Nc4ccccc43)CC2)c1 (configuration not stated)

Compound: COc1ccccc1Oc1cccc(CN2CCC(O)(c3ccccc3C(=O)O)CC2)c1
pIC50 [9]: 7.5

Ki [5]: 0.00061 µM
Compound: CCCN(CCC)CCCCN(C)Cc1ccc(CN(Cc2ncc[nH]2)Cc2nccn2C)cc1

pIC50 [9]: 7.8
Compound: CCNS(=O)(=O)c1ccc(OC)cc1C1(O)CCN(Cc2cccc(Oc3ccccc3OC)c2)CC1

IC50 [10]: 2 µM
Compound: O=C(C1=C(O)C(=O)N(c2nnc(SCc3ccc(Cl)cc3)s2)C1c1cccs1)c1cc2ccccc2o1 (configuration not stated)

Ki [1]: 0.1 µM
Compound: O=C(/C=C/c1ccc(Cl)c(Cl)c1)NCCCCCN1CCC(c2c[nH]c3ccc(O)cc23)CC1

From ChEMBL document CHEMBL5260798, “Structural Analysis of Chemokine Receptor-Ligand Interactions” (J Med Chem, 2017)
